Laboratory results taken from patent US20260256792A1, “TREATMENT OF CHRONIC SPONTANEOUS URTICARIA BY ADMINISTERING (R)-2-[3-[4-AMINO-3-(2-FLUORO-4-PHENOXY-PHENYL)PYRAZOLO[3,4-D]PYRIMIDIN-1-YL]PIPERIDINE-1-CARBONYL]-4-METHYL-4-[4-(OXETAN-3-YL)PIPERAZIN-1-YL]PENT-2-ENENITRILE” (priority 2023, published 2026).

System: moderate-to-severe chronic spontaneous urticaria (CSU)
Experiment: Phase 2 CSU study: itch severity score over 7 days (ISS7)
Format: in vivo, human
Text: The study comprises a 12 week, randomized, double-blind, placebo-controlled, multi-center, dose-ranging efficacy and safety phase, followed by a 40 week open label extension (OLE) phase (see FIG. 1). The study consists of three phases and an optional OLE phase. […] Clinically, CSU is characterized by the spontaneous and recurrent appearance of pruritic hives. The proposed primary endpoints were the UAS7 at Week 12 in EU and EU reference countries and the ISS7 in the US. Regardless of where a participant was from, all assessments were the same. The UAS7 score is a composite score containing both the HSS7 and the ISS7. This allowed a global assessment of the two key components of urticaria: hives and itch. […] The UAS is a validated PRO measure. […] The daily UAS scores range from 0 to 6 point/day. […] Patients were to complete the UAS using the e-diary. […] The following secondary endpoints were to be analyzed using the same approach as for the primary endpoint: • Change from baseline in UAS7 at Week 4 • Change from baseline in UAS7 at Week 12 (for US and US reference countries) • Change from baseline in ISS7 at Week 12 (except US and US reference countries) • Change from baseline in HSS7 at Week 12

[1] = Week 10, 400 mg QPM, Omalizumab-Naïve
[2] = Week 10, 400 mg QPM, Prior Omalizumab Use
[3] = Week 10, 400 mg TID, Omalizumab-Naïve
[4] = Week 10, 400 mg TID, Prior Omalizumab Use
[5] = Week 11, 400 mg BID, Omalizumab-Naïve
[6] = Week 11, 400 mg BID, Prior Omalizumab Use
[7] = Week 11, 400 mg QPM, Omalizumab-Naïve
[8] = Week 11, 400 mg QPM, Prior Omalizumab Use
[9] = Week 11, 400 mg TID, Omalizumab-Naïve
[10] = Week 11, 400 mg TID, Prior Omalizumab Use
[11] = Week 12, 400 mg BID, Omalizumab-Naïve
[12] = Week 12, 400 mg BID, Prior Omalizumab Use
[13] = Week 12, 400 mg QPM, Omalizumab-Naïve
[14] = Week 12, 400 mg QPM, Prior Omalizumab Use
[15] = Week 12, 400 mg TID, Omalizumab-Naïve
[16] = Week 12, 400 mg TID, Prior Omalizumab Use

CC(C)(C=C(C#N)C(=O)N1CCC[C@@H](n2nc(-c3ccc(Oc4ccccc4)cc3F)c3c(N)ncnc32)C1)N1CCN(C2COC2)CC1 [rilzabrutinib, (R)-2-[3-[4-amino-3-(2-fluoro-4-phenoxy-phenyl)pyrazolo[3,4-d]pyrimidin-1-yl]piperidine-1-carbonyl]-4-methyl-4-[4-(oxetan-3-yl)piperazin-1-yl]pent-2-enenitrile]
ISS7 Change from baseline Median [1]: −6.00 | ISS7 Mean (SD) [1]: 10.43 (5.30) | ISS7 Median [1]: 9.50 | ISS7 Percent change from baseline Mean (SD) [1]: −37.25 (29.62) % | ISS7 Percent change from baseline Median [1]: −39.23% | ISS7 Change from baseline Mean (SD) [2]: −13.00 (NC) | ISS7 Change from baseline Median [2]: −13.00 | ISS7 Mean (SD) [2]: 8.00 (NC) | ISS7 Median [2]: 8.00 | ISS7 Percent change from baseline Mean (SD) [2]: −61.90 (NC) % | ISS7 Percent change from baseline Median [2]: −61.90% | ISS7 Change from baseline Mean (SD) [3]: −9.55 (5.37) | ISS7 Change from baseline Median [3]: −10.00 | ISS7 Mean (SD) [3]: 6.75 (5.25) | ISS7 Median [3]: 7.00 | ISS7 Percent change from baseline Mean (SD) [3]: −58.27 (30.87) % | ISS7 Percent change from baseline Median [3]: −57.19% | ISS7 Change from baseline Mean (SD) [4]: −12.17 (8.26) | ISS7 Change from baseline Median [4]: −13.00 | ISS7 Mean (SD) [4]: 4.83 (6.85) | ISS7 Median [4]: 3.00 | ISS7 Percent change from baseline Mean (SD) [4]: −68.55 (36.38) % | ISS7 Percent change from baseline Median [4]: −79.76% | ISS7 Change from baseline Mean (SD) [5]: −7.51 (6.18) | ISS7 Change from baseline Median [5]: −8.00 | ISS7 Mean (SD) [5]: 7.93 (6.94) | ISS7 Median [5]: 7.00 | ISS7 Percent change from baseline Mean (SD) [5]: −49.75 (40.18) % | ISS7 Percent change from baseline Median [5]: −57.14% | ISS7 Change from baseline Mean (SD) [6]: −10.43 (9.36) | ISS7 Change from baseline Median [6]: −13.00 | ISS7 Mean (SD) [6]: 6.77 (8.14) | ISS7 Median [6]: 2.00 | ISS7 Percent change from baseline Mean (SD) [6]: −58.05 (49.51) % | ISS7 Percent change from baseline Median [6]: −86.67% | ISS7 Change from baseline Mean (SD) [7]: −6.07 (4.83) | ISS7 Change from baseline Median [7]: −6.00 | ISS7 Mean (SD) [7]: 11.03 (5.55) | ISS7 Percent change from baseline Mean (SD) [7]: −36.12 (28.12) % | ISS7 Percent change from baseline Median [7]: −30.00% | ISS7 Change from baseline Mean (SD) [8]: −12.00 (NC) | ISS7 Change from baseline Median [8]: −12.00 | ISS7 Mean (SD) [8]: 9.00 (NC) | ISS7 Median [8]: 9.00 | ISS7 Percent change from baseline Mean (SD) [8]: −57.14 (NC) % | ISS7 Percent change from baseline Median [8]: −57.14% | ISS7 Change from baseline Mean (SD) [9]: −9.23 (5.92) | ISS7 Change from baseline Median [9]: −9.00 | ISS7 Mean (SD) [9]: 6.99 (5.53) | ISS7 Median [9]: 7.00 | ISS7 Percent change from baseline Mean (SD) [9]: −56.08 (33.60) % | ISS7 Percent change from baseline Median [9]: −60.00% | ISS7 Change from baseline Mean (SD) [10]: −12.58 (8.36) | ISS7 Change from baseline Median [10]: −13.75 | ISS7 Mean (SD) [10]: 4.42 (6.99) | ISS7 Median [10]: 1.75 | ISS7 Percent change from baseline Mean (SD) [10]: −71.13 (37.09) % | ISS7 Percent change from baseline Median [10]: −87.50% | ISS7 Change from baseline Mean (SD) [11]: −7.40 (6.12) | ISS7 Change from baseline Median [11]: −7.00 | ISS7 Mean (SD) [11]: 8.09 (6.95) | ISS7 Median [11]: 7.00 | ISS7 Percent change from baseline Mean (SD) [11]: −49.06 (38.85) % | ISS7 Percent change from baseline Median [11]: −45.00% | ISS7 Change from baseline Mean (SD) [12]: −13.50 (9.33) | ISS7 Change from baseline Median [12]: −16.50 | ISS7 Mean (SD) [12]: 4.50 (9.00) | ISS7 Median [12]: 0.00 | ISS7 Percent change from baseline Mean (SD) [12]: −75.00 (50.00) % | ISS7 Percent change from baseline Median [12]: −100.00% | ISS7 Change from baseline Mean (SD) [13]: −5.69 (4.72) | ISS7 Change from baseline Median [13]: −5.33 | ISS7 Median [13]: 11.60 | ISS7 Percent change from baseline Mean (SD) [13]: −33.81 (26.94) % | ISS7 Percent change from baseline Median [13]: −32.64% | ISS7 Change from baseline Mean (SD) [14]: −14.00 (NC) | ISS7 Change from baseline Median [14]: −14.00 | ISS7 Mean (SD) [14]: 7.00 (NC) | ISS7 Median [14]: 7.00 | ISS7 Change from baseline Mean (SD) [15]: −10.27 (6.02) | ISS7 Change from baseline Median [15]: −10.33 | ISS7 Mean (SD) [15]: 5.77 (5.26) | ISS7 Median [15]: 7.00 | ISS7 Percent change from baseline Mean (SD) [15]: −62.66 (31.72) % | ISS7 Percent change from baseline Median [15]: −57.19% | ISS7 Change from baseline Mean (SD) [16]: −13.00 (9.27) | ISS7 Change from baseline Median [16]: −17.00 | ISS7 Mean (SD) [16]: 4.60 (7.80) | ISS7 Median [16]: 0.00 | ISS7 Percent change from baseline Mean (SD) [16]: −70.36 (41.41) % | ISS7 Percent change from baseline Median [16]: −100.00%
